From ChEMBL document CHEMBL1201862, “PubChem BioAssay data set” (2004)
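Exposure lasted 48 hours, with cells grown in 96-well plates and compounds tested at five concentrations. GI50 = concentration required for 50% inhibition of growth.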 Calls of active or inactive are those of the source. Cut-off read from the data, not from the text of the source: active = GI50 up to about 1.1 µM and inactive = higher.

How the values were obtained:
Assay in all cases: inhibition of tumour cell growth, NCI panel, 48 h
SN12C = test system: SN12C
M14 = test system: M14
DU-145 = test system: DU-145
HCT-116 = test system: HCT-116
EKVX = test system: EKVX
MDA-MB-231 = test system: MDA-MB-231
U-251 = test system: U-251
BT-549 = test system: BT-549
HCT-15 = test system: HCT-15
SNB-75 = test system: SNB-75
MOLT-4 = test system: MOLT-4
TK-10 = test system: TK-10
CAKI-1 = test system: CAKI-1
COLO 205 = test system: COLO 205
SK-OV-3 = test system: SK-OV-3
SK-MEL-28 = test system: SK-MEL-28
SF-539 = test system: SF-539
MCF7 = test system: MCF7
RPMI-8226 = test system: RPMI-8226

| Structure (SMILES) | GI50 (SN12C) | GI50 (M14) | GI50 (DU-145) | GI50 (HCT-116) | GI50 (EKVX) | GI50 (MDA-MB-231) | GI50 (U-251) | GI50 (BT-549) | GI50 (HCT-15) [µM] | GI50 (SNB-75) | GI50 (MOLT-4) | GI50 (TK-10) | GI50 (CAKI-1) | GI50 (COLO 205) | GI50 (SK-OV-3) | GI50 (SK-MEL-28) | GI50 (SF-539) | GI50 (MCF7) | GI50 (RPMI-8226) |
| --- | --- | --- | --- | --- | --- | --- | --- | --- | --- | --- | --- | --- | --- | --- | --- | --- | --- | --- | --- |
| O=C1c2ccccc2C(=O)c2c(Nc3ccc4c5c(cccc35)C(=O)c3ccccc3-4)cccc21 | > 100 µM (inactive) | > 100 µM (inactive) | > 100 µM (inactive) | > 100 µM (inactive) | > 100 µM (inactive) | > 100 µM (inactive) | > 100 µM (inactive) | > 100 µM (inactive) | > 100 | > 100 µM (inactive) | > 100 µM (inactive) | > 100 µM (inactive) | > 100 µM (inactive) | – | – | – | – | – | – |
| COc1cc(Nc2nc3cc(C(F)(F)F)ccc3nc2-c2ccccc2)cc(OC)c1OC | > 100 µM (inactive) | > 100 µM (inactive) | – | > 10 µM (inactive) | 24.3 µM (inactive) | – | 57.4 µM (inactive) | – | > 100 | 39.7 µM (inactive) | > 100 µM (inactive) | 30.5 µM (inactive) | < 0.01 µM (active) | > 100 µM (inactive) | 31.6 µM (inactive) | 49.7 µM (inactive) | 54.8 µM (inactive) | – | – |
| O=C(Nc1nc(C23CC4CC(CC(C4)C2)C3)cs1)c1cc2cc(Cl)ccc2oc1=O | > 100 µM (inactive) | – | > 100 µM (inactive) | > 100 µM (inactive) | > 100 µM (inactive) | > 100 µM (inactive) | > 100 µM (inactive) | – | > 100 | > 100 µM (inactive) | > 100 µM (inactive) | > 100 µM (inactive) | > 100 µM (inactive) | > 100 µM (inactive) | – | > 100 µM (inactive) | > 100 µM (inactive) | > 100 µM (inactive) | > 100 µM (inactive) |
| Cn1c(=N)n[n+]([O-])c2ccccc21 | 1.84 µM (inactive) | 2.02 µM (inactive) | 2.26 µM (inactive) | 3.78 µM (inactive) | 7.69 µM (inactive) | 9.42 µM (inactive) | 12.3 µM (inactive) | 1.87 µM (inactive) | – | 2.01 µM (inactive) | 2.03 µM (inactive) | 25.6 µM (inactive) | 2.49 µM (inactive) | 2.34 µM (inactive) | 25.3 µM (inactive) | – | 1.99 µM (inactive) | 2.18 µM (inactive) | – |
| CCCCCC(=O)NC(=S)Nc1nnn[nH]1 | > 100 µM (inactive) | > 100 µM (inactive) | > 100 µM (inactive) | > 100 µM (inactive) | > 100 µM (inactive) | > 100 µM (inactive) | > 100 µM (inactive) | – | > 100 | > 100 µM (inactive) | > 100 µM (inactive) | > 100 µM (inactive) | > 100 µM (inactive) | > 100 µM (inactive) | > 100 µM (inactive) | > 100 µM (inactive) | > 100 µM (inactive) | > 100 µM (inactive) | > 100 µM (inactive) |
| C/C(C=O)=C/[C@@]1(C)O[C@@H](C)[C@@](C)(O)[C@@H]1O | 32.5 µM (inactive) | 32.5 µM (inactive) | 78.9 µM (inactive) | 93.1 µM (inactive) | > 100 µM (inactive) | > 100 µM (inactive) | > 100 µM (inactive) | – | 22.2 | – | 5.62 µM (inactive) | 77.6 µM (inactive) | 19.9 µM (inactive) | 40.7 µM (inactive) | > 100 µM (inactive) | > 100 µM (inactive) | 40.2 µM (inactive) | 25.6 µM (inactive) | 30.9 µM (inactive) |
| CCOC(=O)c1c(SCCCN2CCCCC2)n(-c2ccccc2)c(=S)n(-c2ccccc2)c1=O | 16.2 µM (inactive) | 16.5 µM (inactive) | 16.4 µM (inactive) | 12.4 µM (inactive) | 27.8 µM (inactive) | 19.4 µM (inactive) | 16.9 µM (inactive) | – | 17.4 | – | 7.26 µM (inactive) | 20.6 µM (inactive) | – | 16.4 µM (inactive) | – | 17.4 µM (inactive) | 14.8 µM (inactive) | 12.1 µM (inactive) | 6.67 µM (inactive) |
| O=c1c(O)c(-c2ccccc2)oc2c(CP(=O)(O)O)cccc12 | > 100 µM (inactive) | > 100 µM (inactive) | > 100 µM (inactive) | > 100 µM (inactive) | > 100 µM (inactive) | > 100 µM (inactive) | > 100 µM (inactive) | > 100 µM (inactive) | > 100 | – | > 100 µM (inactive) | > 100 µM (inactive) | > 100 µM (inactive) | > 100 µM (inactive) | > 100 µM (inactive) | – | > 100 µM (inactive) | > 100 µM (inactive) | – |
| N#Cc1ccccc1C#C/C=C\C#Cc1ccccn1 | 20.4 µM (inactive) | 15.5 µM (inactive) | 28.6 µM (inactive) | 12 µM (inactive) | 22.9 µM (inactive) | – | 18.5 µM (inactive) | – | 18.8 | 24.8 µM (inactive) | – | 30.9 µM (inactive) | 21.8 µM (inactive) | 27.4 µM (inactive) | 25.1 µM (inactive) | 17.5 µM (inactive) | 20.5 µM (inactive) | 14.4 µM (inactive) | – |
| [N-]=[N+]=CC(=O)CCC(=O)N(c1ccccc1)c1ccccc1 | > 10 µM (inactive) | > 10 µM (inactive) | > 10 µM (inactive) | > 10 µM (inactive) | > 10 µM (inactive) | > 10 µM (inactive) | > 10 µM (inactive) | > 10 µM (inactive) | > 10 | > 10 µM (inactive) | > 10 µM (inactive) | > 10 µM (inactive) | – | – | > 10 µM (inactive) | > 10 µM (inactive) | > 10 µM (inactive) | > 10 µM (inactive) | – |
| c1ccc(CSC(SCc2ccccc2)c2ccc3c(c2)OCO3)cc1 | > 10 µM (inactive) | > 10 µM (inactive) | > 10 µM (inactive) | > 10 µM (inactive) | > 10 µM (inactive) | > 10 µM (inactive) | > 10 µM (inactive) | – | > 10 | > 10 µM (inactive) | > 10 µM (inactive) | > 10 µM (inactive) | > 10 µM (inactive) | > 10 µM (inactive) | 6.44 µM (inactive) | > 10 µM (inactive) | > 10 µM (inactive) | > 10 µM (inactive) | > 10 µM (inactive) |
| COc1cc(CNC(=O)[C@H](Cc2ccc(O)cn2)NC(C)=O)cc(OC)c1 | > 100 µM (inactive) | 92.5 µM (inactive) | > 100 µM (inactive) | 76.2 µM (inactive) | 60 µM (inactive) | – | > 100 µM (inactive) | > 100 µM (inactive) | > 100 | – | 57.8 µM (inactive) | > 100 µM (inactive) | > 100 µM (inactive) | > 100 µM (inactive) | > 100 µM (inactive) | > 100 µM (inactive) | > 100 µM (inactive) | > 100 µM (inactive) | 29.5 µM (inactive) |
| COC1CCCc2c(OC(C)=O)ccc(OC(C)=O)c21 (stereo not drawn) | > 100 µM (inactive) | > 100 µM (inactive) | – | > 100 µM (inactive) | – | – | > 100 µM (inactive) | – | > 100 | > 100 µM (inactive) | > 100 µM (inactive) | > 100 µM (inactive) | > 100 µM (inactive) | – | > 100 µM (inactive) | > 100 µM (inactive) | – | – | – |
| CC(C)N1CN(c2ccccc2)C2(CCN(CCCC(=O)c3ccc(F)cc3)CC2)C1=O | 4.68 µM (inactive) | 15.3 µM (inactive) | 3.18 µM (inactive) | 2.04 µM (inactive) | 12.7 µM (inactive) | 9.14 µM (inactive) | 26.7 µM (inactive) | – | 6.31 | 36.1 µM (inactive) | 5.92 µM (inactive) | 12.1 µM (inactive) | 4.13 µM (inactive) | 0.483 µM (active) | 42 µM (inactive) | 18.3 µM (inactive) | 9.55 µM (inactive) | 3.88 µM (inactive) | 10.3 µM (inactive) |
| COC1C(O)C(C)OC(O[C@H]2CC[C@@]3(C)C(CC[C@@H]4[C@@H]3CC[C@]3(C)[C@@H](C(C)OC5OC(CO)C(O)C(O)C5O)CC[C@]43O)C2)C1O (stereo partly drawn) | > 25 µM (inactive) | > 25 µM (inactive) | – | > 25 µM (inactive) | > 25 µM (inactive) | > 25 µM (inactive) | > 25 µM (inactive) | – | > 25 | > 25 µM (inactive) | > 25 µM (inactive) | > 25 µM (inactive) | > 25 µM (inactive) | – | > 25 µM (inactive) | > 25 µM (inactive) | > 25 µM (inactive) | > 25 µM (inactive) | > 25 µM (inactive) |
| C=C[C@@]1(C)CCC2(O)C(CCC3C2(C)CCC[C@@]3(C)COC(=O)CC(=O)OC)C1 (stereo partly drawn) | 19.9 µM (inactive) | 18.1 µM (inactive) | – | 18 µM (inactive) | – | – | 17.9 µM (inactive) | – | 18.4 | 19.9 µM (inactive) | 17.2 µM (inactive) | 18.7 µM (inactive) | > 100 µM (inactive) | – | > 100 µM (inactive) | 17 µM (inactive) | 19.6 µM (inactive) | – | 19.8 µM (inactive) |
| CC(=O)C(CN1C(=O)c2ccccc2C1=O)C(C)=O | > 100 µM (inactive) | > 100 µM (inactive) | > 100 µM (inactive) | > 100 µM (inactive) | > 100 µM (inactive) | > 100 µM (inactive) | > 100 µM (inactive) | > 100 µM (inactive) | > 100 | > 100 µM (inactive) | – | > 100 µM (inactive) | > 100 µM (inactive) | > 100 µM (inactive) | > 100 µM (inactive) | > 100 µM (inactive) | > 100 µM (inactive) | > 100 µM (inactive) | – |
| COc1ccc(-c2nnc3nc4ccccc4n3c2O)cc1 | > 100 µM (inactive) | > 100 µM (inactive) | > 100 µM (inactive) | > 100 µM (inactive) | > 100 µM (inactive) | 31 µM (inactive) | 90.2 µM (inactive) | > 100 µM (inactive) | > 100 | 41.9 µM (inactive) | > 100 µM (inactive) | > 100 µM (inactive) | > 100 µM (inactive) | > 100 µM (inactive) | – | > 100 µM (inactive) | > 100 µM (inactive) | > 100 µM (inactive) | – |
